Measurements published in the NIST ThermoML archive (doi:10.1016/j.jct.2009.02.008).
Values joined by “and” are separate entries in the source; they are usually repeats but may differ in a detail not shown here. Equal values may be shown once. Numbers after ± are expanded uncertainties.

Legend:
[1] = Molar enthalpy of transition or fusion; details: Crystal; DSC
[2] = for vapor or sublimation pressure: Torsion effusion method

O=C(O)c1ccc([N+](=O)[O-])c([N+](=O)[O-])c1 [3,4-dinitrobenzoic acid]
Details	Molar enthalpy of transition or fusion [kcal/mol]
[1]	5.88 ± 0.454

[2]
Details	Normal melting temperature [°C]	vapor or sublimation pressure
366 K, Crystal	–	6e-05 ± 1e-05 kPa
367 K, Crystal	–	7.5e-05 ± 1e-05 kPa
368 K, Crystal	–	7.5e-05 ± 1.4e-05 kPa
369 K, Crystal	–	9e-05 ± 1.1e-05 kPa
370 K, Crystal	–	0.000105 ± 1.9e-05 kPa
370.5 K, Crystal	–	0.000105 ± 1.9e-05 kPa
373 K, Crystal	–	0.00015 ± 1.6e-05 kPa
373.5 K, Crystal	–	0.00015 ± 1.8e-05 kPa
374 K, Crystal	–	0.00015 ± 1.8e-05 kPa
374.5 K, Crystal	–	0.00015 ± 1.4e-05 kPa
376 K, Crystal	–	0.00018 ± 3.2e-05 kPa
378 K, Crystal	–	0.00024 ± 3e-05 kPa
379 K, Crystal	–	0.00027 ± 4.4e-05 kPa
380 K, Crystal	–	0.00027 ± 4.7e-05 kPa
382 K, Crystal	–	0.00039 ± 4.7e-05 kPa and 0.00036 ± 4.6e-05 kPa
383 K, Crystal	–	0.00039 ± 5.8e-05 kPa
383.5 K, Crystal	–	0.00039 ± 5.2e-05 kPa
384.5 K, Crystal	–	0.00048 ± 5.6e-05 kPa
385 K, Crystal	–	0.000511 ± 6.6e-05 kPa
386.5 K, Crystal	–	0.000541 ± 8e-05 kPa
387 K, Crystal	–	0.000571 ± 8e-05 kPa
387.5 K, Crystal	–	0.000631 ± 7.9e-05 kPa
390.5 K, Crystal	–	0.000841 ± 0.0001 kPa
391.5 K, Crystal	–	0.000901 ± 0.00012 kPa
392 K, Crystal	–	0.000991 ± 0.00012 kPa
393 K, Crystal	–	0.001171 ± 0.00017 kPa
393.5 K, Crystal	–	0.001111 ± 0.00017 kPa
396 K, Crystal	–	0.001502 ± 0.00019 kPa and 0.001441 ± 0.00019 kPa
396.5 K, Crystal	–	0.001622 ± 0.0002 kPa
397 K, Crystal	–	0.001652 ± 0.0002 kPa
398.5 K, Crystal	–	0.001862 ± 0.00019 kPa
399.3 K, Crystal	–	0.001952 ± 0.00018 kPa
504.2 K, Liquid	–	1.398 ± 0.08 kPa
506.3 K, Liquid	–	1.467 ± 0.11 kPa and 1.527 ± 0.11 kPa
508.1 K, Liquid	–	1.661 ± 0.14 kPa
509.3 K, Liquid	–	1.686 ± 0.13 kPa and 1.713 ± 0.13 kPa
510.3 K, Liquid	–	1.855 ± 0.15 kPa
511.2 K, Liquid	–	1.855 ± 0.15 kPa
512.2 K, Liquid	–	2.062 ± 0.14 kPa and 1.928 ± 0.13 kPa
512.6 K, Liquid	–	2.021 ± 0.16 kPa
513.3 K, Liquid	–	2.078 ± 0.15 kPa
514 K, Liquid	–	2.144 ± 0.15 kPa
514.2 K, Liquid	–	2.189 ± 0.15 kPa
514.5 K, Liquid	–	2.164 ± 0.15 kPa
515.2 K, Liquid	–	2.237 ± 0.15 kPa
516.3 K, Liquid	–	2.326 ± 0.17 kPa and 2.215 ± 0.16 kPa
517.3 K, Liquid	–	2.424 ± 0.17 kPa
517.4 K, Liquid	–	2.494 ± 0.17 kPa
517.5 K, Liquid	–	2.396 ± 0.19 kPa
518.2 K, Liquid	–	2.524 ± 0.16 kPa and 2.484 ± 0.16 kPa
518.3 K, Liquid	–	2.448 ± 0.21 kPa
519.1 K, Liquid	–	2.585 ± 0.18 kPa
519.3 K, Liquid	–	2.646 ± 0.19 kPa
519.5 K, Liquid	–	2.554 ± 0.18 kPa
520 K, Liquid	–	2.619 ± 0.18 kPa
520.2 K, Liquid	–	2.672 ± 0.18 kPa and 2.772 ± 0.18 kPa and 2.726 ± 0.19 kPa
521.2 K, Liquid	–	2.916 ± 0.2 kPa
521.3 K, Liquid	–	2.807 ± 0.23 kPa
521.7 K, Liquid	–	2.815 ± 0.21 kPa
522.1 K, Liquid	–	2.909 ± 0.19 kPa and 2.971 ± 0.21 kPa
522.2 K, Liquid	–	2.978 ± 0.19 kPa
523.1 K, Liquid	–	3.104 ± 0.25 kPa
523.3 K, Liquid	–	3.095 ± 0.19 kPa and 3.121 ± 0.2 kPa
523.5 K, Liquid	–	3.122 ± 0.22 kPa
524.1 K, Liquid	–	3.125 ± 0.19 kPa
524.2 K, Liquid	–	3.059 ± 0.2 kPa and 3.181 ± 0.19 kPa
524.4 K, Liquid	–	3.199 ± 0.23 kPa
525 K, Liquid	–	3.353 ± 0.19 kPa
525.2 K, Liquid	–	3.39 ± 0.23 kPa
525.5 K, Liquid	–	3.335 ± 0.25 kPa
526 K, Liquid	–	3.494 ± 0.23 kPa
526.3 K, Liquid	–	3.406 ± 0.24 kPa and 3.328 ± 0.2 kPa and 3.288 ± 0.2 kPa
526.5 K, Liquid	–	3.316 ± 0.23 kPa
527.1 K, Liquid	–	3.585 ± 0.23 kPa
527.3 K, Liquid	–	3.551 ± 0.2 kPa and 3.644 ± 0.23 kPa
528.1 K, Liquid	–	3.726 ± 0.27 kPa and 3.627 ± 0.28 kPa
528.2 K, Liquid	–	3.635 ± 0.28 kPa
528.3 K, Liquid	–	3.831 ± 0.3 kPa
529.2 K, Liquid	–	3.887 ± 0.26 kPa
529.4 K, Liquid	–	3.764 ± 0.28 kPa
529.6 K, Liquid	–	3.879 ± 0.26 kPa and 3.918 ± 0.3 kPa
530.1 K, Liquid	–	3.984 ± 0.29 kPa
530.3 K, Liquid	–	4.036 ± 0.26 kPa and 4.045 ± 0.3 kPa
531 K, Liquid	–	4.159 ± 0.28 kPa
531.3 K, Liquid	–	4.262 ± 0.31 kPa and 4.216 ± 0.28 kPa
532.2 K, Liquid	–	4.348 ± 0.28 kPa [middle of 4 runs]
533.2 K, Liquid	–	4.481 ± 0.29 kPa
533.3 K, Liquid	–	4.576 ± 0.28 kPa and 4.47 ± 0.29 kPa
534.3 K, Liquid	–	4.611 ± 0.29 kPa and 4.532 ± 0.28 kPa
535.4 K, Liquid	–	4.812 ± 0.31 kPa
535.7 K, Liquid	–	4.867 ± 0.34 kPa
536.2 K, Liquid	–	4.889 ± 0.35 kPa
536.5 K, Liquid	–	4.992 ± 0.36 kPa
537.3 K, Liquid	–	5.217 ± 0.38 kPa
538.3 K, Liquid	–	5.356 ± 0.38 kPa
539.3 K, Liquid	–	5.685 ± 0.4 kPa
540.6 K, Liquid	–	5.862 ± 0.39 kPa
Crystal, DTA	165.1 ± 1.3	–
